# Patent US20080145313A1, “Compositions and Methods for the Treatment and Prevention of Neoplastic Disorders” (Genesis Research & Development Corporation Limited, priority 2006, published 2008)
# Experiments:
# [1] = tested on: target transcript mRNA in A549 cells; assay: Level of mRNA of target transcript in A549 cells by quantitative RT-PCR (Tables 12 and 13); format: cell-based, human; conditions: 24 h post-transfection; for mRNA knockdown of transporter gene target transcript, 0.1 nM: 0.1 nM siRNA; for mRNA knockdown of transporter gene target transcript, 1 nM: 1 nM siRNA; for mRNA knockdown of transporter gene target transcript, 10 nM: 10 nM siRNA
# How it was run: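 Target mRNA was measured by SYBR Green quantitative RT-PCR using random-primed cDNA, normalised to HPRT and Lamin. Samples came from A549 cells 24 h post-transfection with 0.1, 1.0 or 10 nM siRNA.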
# [2] = tested on: A549 cells; assay: Growth inhibition of siRNA-transfected A549 cells, SYBR Green I DNA content; format: cell-based, human; conditions: A549 cells, 10 nM siRNA, DNA content 96 hours after transfection, transporter gene targets
# How it was run: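 Growth read-out: cellular DNA quantified with SYBR Green I (485/535 nm) 96 h after transfection, cells frozen, thawed and lysed in PBS/1% Triton X-100, pH 7. Cells (A549, 5×10^3 cells/cm^2) received 10 nM siRNA by RNAiMAX; non-specific siRNA served as control; triplicate wells averaged.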
Substance,"mRNA knockdown of transporter gene target transcript, 0.1 nM [1]","mRNA knockdown of transporter gene target transcript, 1 nM [1]",Growth Inhibition in A549 cells by 10 nM siRNA [2],"mRNA knockdown of transporter gene target transcript, 10 nM [1]"
SEQ ID NO: 4974: siRNA targeting ABCC5 (MRP5) (chain 1 AACCTCTTCCATTAGAAACAAACTC; chain 2 AACCUCUUCCAUUAGAAACAAACUC; chemistry not given here; one strand in two spellings),− (<50% mRNA knockdown),+ (50-70% mRNA knockdown),+ (inhibits by at least 50%),–
"SEQ ID NO: 4893: siRNA targeting SLC2A1 (GLUT1) (chain 1 TTCATCATCAGCATTGAATTCCGCC; chain 2 UUCAUCAUCAGCAUUGAAUUCCGCC; Antisense strand given in DNA and RNA notation, chemistry not given here; one strand in two spellings)",− (<50% mRNA knockdown),− (<50% mRNA knockdown),++ (inhibits by at least 75%),–
"SEQ ID NO: 4898: siRNA targeting SLC2A12 (GLUT12) (chain 1 TATTGTTGTTGGTTGACAGGTTTCC; chain 2 UAUUGUUGUUGGUUGACAGGUUUCC; Antisense strand given in DNA and RNA notation, chemistry not given here; one strand in two spellings)",+++ (>90% mRNA knockdown),+++ (>90% mRNA knockdown),− (no growth inhibition),–
SEQ ID NO: 4963: siRNA targeting ATP6V1F (chain 1 TAGCGCAGGTCTTCGGCAGTGAACA; chain 2 UAGCGCAGGUCUUCGGCAGUGAACA; chemistry not given here; one strand in two spellings),++ (70-90% mRNA knockdown),++ (70-90% mRNA knockdown),− (no growth inhibition),–
"SEQ ID NO: 4917: siRNA targeting SLC23A2 (SVCT2) (chain 1 AACAGCTGTAACTTGTACGCAGTCC; chain 2 AACAGCUGUAACUUGUACGCAGUCC; Antisense strand given in DNA and RNA notation, chemistry not given here; one strand in two spellings)",++ (70-90% mRNA knockdown),++ (70-90% mRNA knockdown),− (no growth inhibition),–
SEQ ID NO: 4972: siRNA targeting ABCC4 (MRP4) (chain 1 AAATAGTTAAGGTCGAGGGCTGTCC; chain 2 AAAUAGUUAAGGUCGAGGGCUGUCC; chemistry not given here; one strand in two spellings),− (<50% mRNA knockdown),++ (70-90% mRNA knockdown),− (no growth inhibition),–
"SEQ ID NO: 4902: siRNA targeting SLC7A5 (LAT1) (chain 1 AAAGAGGCCGCTGTATAATGCCAGC; chain 2 AAAGAGGCCGCUGUAUAAUGCCAGC; Antisense strand given in DNA and RNA notation, chemistry not given here; one strand in two spellings)",++ (70-90% mRNA knockdown),++ (70-90% mRNA knockdown),+ (inhibits by at least 50%),–
"SEQ ID NO: 4916: siRNA targeting SLC23A2 (SVCT2) (chain 1 AATACTAGGAATATTGTCAGCATGG; chain 2 AAUACUAGGAAUAUUGUCAGCAUGG; Antisense strand given in DNA and RNA notation, chemistry not given here; one strand in two spellings)",++ (70-90% mRNA knockdown),++ (70-90% mRNA knockdown),− (no growth inhibition),–
SEQ ID NO: 4934: siRNA targeting SLC29A2 (ENT2) (chain 1 TGTGAAGACCAACACAAGGCACAGC; chain 2 UGUGAAGACCAACACAAGGCACAGC; chemistry not given here; one strand in two spellings),+ (50-70% mRNA knockdown),− (<50% mRNA knockdown),− (no growth inhibition),–
SEQ ID NO: 4947: siRNA targeting ATP2B4 (PMCA4) (chain 1 ATTACGCACAGCCTGATAATCCTGC; chain 2 AUUACGCACAGCCUGAUAAUCCUGC; chemistry not given here; one strand in two spellings),++ (70-90% mRNA knockdown),++ (70-90% mRNA knockdown),− (no growth inhibition),–
SEQ ID NO: 4921: siRNA targeting SLC9A1 (NHE1) (chain 1 ATCAGTGACGGAATGATTAACAGGG; chain 2 AUCAGUGACGGAAUGAUUAACAGGG; chemistry not given here; one strand in two spellings),++ (70-90% mRNA knockdown),++ (70-90% mRNA knockdown),− (no growth inhibition),–
SEQ ID NO: 4931: siRNA targeting SLC29A1 (ENT1) (chain 1 TTGAAGATGGCACTGAGAGAGTTCC; chain 2 UUGAAGAUGGCACUGAGAGAGUUCC; chemistry not given here; one strand in two spellings),++ (70-90% mRNA knockdown),++ (70-90% mRNA knockdown),++ (inhibits by at least 75%),+++ (>90% mRNA knockdown)
"SEQ ID NO: 4897: siRNA targeting SLC2A5 (GLUT5) (chain 1 TTACAGACCACAGCAACGTCAAGGG; chain 2 UUACAGACCACAGCAACGUCAAGGG; Antisense strand given in DNA and RNA notation, chemistry not given here; one strand in two spellings)",+++ (>90% mRNA knockdown),+++ (>90% mRNA knockdown),++ (inhibits by at least 75%),–
SEQ ID NO: 4930: siRNA targeting SLC25A10 (DIC) (chain 1 TCCTGACGTTGACCAAGTCTGCGGG; chain 2 UCCUGACGUUGACCAAGUCUGCGGG; chemistry not given here; one strand in two spellings),++ (70-90% mRNA knockdown),++ (70-90% mRNA knockdown),− (no growth inhibition),–
"SEQ ID NO: 4908: siRNA targeting SLC3A2 (4F2hc) (chain 1 AAGTTGAGCCGGCAAGAAGGAAGTC; chain 2 AAGUUGAGCCGGCAAGAAGGAAGUC; Antisense strand given in DNA and RNA notation, chemistry not given here; one strand in two spellings)",− (<50% mRNA knockdown),+ (50-70% mRNA knockdown),++ (inhibits by at least 75%),–
SEQ ID NO: 4927: siRNA targeting SLC25A1 (CIC) (chain 1 TGCCTTTGTAGAATGCCTTGAGCCC; chain 2 UGCCUUUGUAGAAUGCCUUGAGCCC; chemistry not given here; one strand in two spellings),++ (70-90% mRNA knockdown),++ (70-90% mRNA knockdown),− (no growth inhibition),–
"SEQ ID NO: 4903: siRNA targeting SLC7A5 (LAT1) (chain 1 ACGAAATTCAAGTAATTCCATCCTC; chain 2 ACGAAAUUCAAGUAAUUCCAUCCUC; Antisense strand given in DNA and RNA notation, chemistry not given here; one strand in two spellings)",++ (70-90% mRNA knockdown),+++ (>90% mRNA knockdown),− (no growth inhibition),–
SEQ ID NO: 4956: siRNA targeting ATP6V1C1 (chain 1 TAGACTTCTAGTTAGCAAACTTCCT; chain 2 UAGACUUCUAGUUAGCAAACUUCCU; chemistry not given here; one strand in two spellings),++ (70-90% mRNA knockdown),++ (70-90% mRNA knockdown),− (no growth inhibition),–
SEQ ID NO: 4923: siRNA targeting SLC16A1 (MCT1) (chain 1 AAATAATTAGGACGACGCCACATGC; chain 2 AAAUAAUUAGGACGACGCCACAUGC; chemistry not given here; one strand in two spellings),+ (50-70% mRNA knockdown),++ (70-90% mRNA knockdown),− (no growth inhibition),+++ (>90% mRNA knockdown)
